The source of these data is US20250353853A1, “FLAVIVIRUS INHIBITORS” (IRBM S.P.A., priority 2022, published 2025).

The target of experiment [1] is West Nile Virus (WNV) NS2B-NS3 protease (West Nile virus (WNV), UniProt P06935). Description: WNV Protease Inhibition Assay. Format: biochemical. The source says: WNV Protease Inhibition Assay
For experiment [2], the system named is ZIKV replicon in Vero cells. As to the kind of experiment: ZIKV Replication Inhibition Assay (replicon, NanoLuc). Conditions: Zika virus, Vero, 72 h, read-out: Zika Replicon EC50. On the technique in general: Replicon systems follow genome replication, usually without infectious particles.
Setting [3] is: 2 nM protease, 10 μM pERTKR-AMC substrate, read-out: WNV Protease IC50.

Where two headings read alike, the source gives them in different places. A value given as a limit tells only on which side of the number the result lay.

Sequence of West Nile Virus (WNV) NS2B-NS3 protease (P06935 1502-1679 limits assumed): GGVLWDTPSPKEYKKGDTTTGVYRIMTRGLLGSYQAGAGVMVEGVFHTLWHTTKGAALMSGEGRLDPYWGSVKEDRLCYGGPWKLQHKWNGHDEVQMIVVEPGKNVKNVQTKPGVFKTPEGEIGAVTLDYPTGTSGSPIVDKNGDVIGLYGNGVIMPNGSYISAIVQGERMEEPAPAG
Sequence of West Nile Virus (WNV) NS2B-NS3 protease (P06935 1371-1501 partner limits assumed): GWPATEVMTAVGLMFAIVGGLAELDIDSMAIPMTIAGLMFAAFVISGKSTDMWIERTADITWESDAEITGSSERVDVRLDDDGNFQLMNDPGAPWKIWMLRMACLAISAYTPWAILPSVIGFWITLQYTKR

In general, IC50 refers to the concentration needed to halve the response being measured. By EC50 is commonly meant the concentration giving half of the maximal effect. For `O=C([N-]c1c[n+](Cc2ccc(-c3cncnc3C(F)(F)F)cn2)no1)Nc1cccc(C(F)(F)F)c1` [Example 131, ((3-(trifluoromethyl)phenyl)carbamoyl)(3-((5-(4-(trifluoromethyl)pyrimidin-5-yl)pyridin-2-yl)methyl)-1,2,3-oxadiazol-3-ium-5-yl)amide], the IC50 in experiment [1] (setting [3]) is less than 100 nM. Also, the EC50 in experiment [2] is less than 100 nM.

`O=C([N-]c1c[n+](C(c2ccccc2)C(F)(F)F)no1)Nc1cccc(C(F)(F)F)c1` (centres unmarked) [Example 44, (3-(2,2,2-trifluoro-1-phenylethyl)-1,2,3-oxadiazol-3-ium-5-yl)((3-(trifluoromethyl)phenyl)carbamoyl)amide] had an IC50 in experiment [1] of 1000 to 20000 nM. For the same compound, the EC50 in experiment [2] is more than 20000 nM.

For `Cc1ncnc(C)c1-c1ccc(C[n+]2cc([N-]C(=O)Nc3cccc(C(F)(F)F)c3)on2)nc1` [Example 130, (3-((5-(4,6-dimethylpyrimidin-5-yl)pyridin-2-yl)methyl)-1,2,3-oxadiazol-3-ium-5-yl)((3-(trifluoromethyl)phenyl)carbamoyl)amide], the IC50 in experiment [1] (setting [3]) is less than 100 nM. Besides, the EC50 in experiment [2] is less than 100 nM.

`COc1ncc(-c2ccc(C[n+]3cc([N-]C(=O)Nc4cncc(C(F)(F)F)c4)on3)cc2)cn1` [Example 58, (3-(4-(2-methoxypyrimidin-5-yl)benzyl)-1,2,3-oxadiazol-3-ium-5-yl)((5-(trifluoromethyl)pyridin-3-yl)carbamoyl)amide]: the IC50 in experiment [1] (setting [3]) was less than 100 nM. The EC50 in experiment [2] was 100 to 1000 nM.

Regarding `Cc1ncccc1-c1ccc(C[n+]2cc([N-]C(=O)Nc3cncc(C(F)(F)F)c3)on2)nc1` [Example 141, (3-((2′-methyl-[3,3′-bipyridin]-6-yl)methyl)-1,2,3-oxadiazol-3-ium-5-yl)((5-(trifluoromethyl)pyridin-3-yl)carbamoyl)amide], in experiment [1] (setting [3]), the IC50 was less than 100 nM. Besides, the EC50 in experiment [2] was 100 to 1000 nM.

In experiment [1], `Cc1ncnc(C)c1-c1ccc(C[n+]2cc([N-]C(=O)Nc3cccc(C4CC4)c3)on2)nc1` [Example 182, ((3-cyclopropylphenyl)carbamoyl)(3-((5-(4,6-dimethylpyrimidin-5-yl)pyridin-2-yl)methyl)-1,2,3-oxadiazol-3-ium-5-yl)amide] returned an IC50 of 100 to 1000 nM. Further, the EC50 in experiment [2] was in the range of 100 to 1000 nM.

In turn, `COc1ncc(-c2ccc(C[n+]3cc([N-]C(=O)Nc4cncc(C(F)(F)F)c4)on3)nc2)c(C)n1` [Example 133, (3-((5-(2-methoxy-4-methylpyrimidin-5-yl)pyridin-2-yl)methyl)-1,2,3-oxadiazol-3-ium-5-yl)((5-(trifluoromethyl)pyridin-3-yl)carbamoyl)amide] came in with an IC50 in experiment [1] of 100 to 1000 nM. In addition, in experiment [2], the EC50 was 100 to 1000 nM.

`Cc1nn(C)c(C)c1-c1ccc(C[n+]2cc([N-]C(=O)Nc3cncc(C(F)(F)F)c3)on2)nc1` [Example 147, ((5-(trifluoromethyl)pyridin-3-yl)carbamoyl)(3-((5-(1,3,5-trimethyl-1H-pyrazol-4-yl)pyridin-2-yl)methyl)-1,2,3-oxadiazol-3-ium-5-yl)amide]: in experiment [1] (setting [3]), the IC50 was less than 100 nM. The EC50 in experiment [2] lay in the range of 100 to 1000 nM.

As to `Cc1nn(C)c(C)c1-c1ccc(C[n+]2cc([N-]C(=O)Nc3cccc(C(F)(F)F)c3)on2)nc1` [Example 143, ((3-(trifluoromethyl)phenyl)carbamoyl)(3-((5-(1,3,5-trimethyl-1H-pyrazol-4-yl)pyridin-2-yl)methyl)-1,2,3-oxadiazol-3-ium-5-yl)amide], in experiment [1] (setting [3]), the IC50 was less than 100 nM. Also, in experiment [2], the EC50 was 100 to 1000 nM.

In turn, `O=C([N-]c1c[n+](Cc2ccc(-c3ccncc3)cc2)no1)Nc1cncc(C(F)(F)F)c1` [Example 67, (3-(4-(pyridin-4-yl)benzyl)-1,2,3-oxadiazol-3-ium-5-yl)((5-(trifluoromethyl)pyridin-3-yl)carbamoyl)amide] registered a concentration for half-maximal inhibition (IC50) in experiment [1] of 100 to 1000 nM. The EC50 in experiment [2] was in the range of 100 to 1000 nM.

`Cc1noc(C)c1-c1ccc(C[n+]2cc([N-]C(=O)Nc3ccc(Cl)c(C(F)(F)F)c3)on2)nc1` [Example 157, ((4-chloro-3-(trifluoromethyl)phenyl)carbamoyl)(3-((5-(3,5-dimethylisoxazol-4-yl)pyridin-2-yl)methyl)-1,2,3-oxadiazol-3-ium-5-yl)amide]: the IC50 in experiment [1] lay in the range of 1000 to 20000 nM. Moreover, in experiment [2], the EC50 lay within 100 to 1000 nM.

In the case of `O=C([N-]c1c[n+](Cc2cccc(Br)c2)no1)Nc1cccc(C(F)(F)F)c1` [Example 46, (3-(3-bromobenzyl)-1,2,3-oxadiazol-3-ium-5-yl)((3-(trifluoromethyl)phenyl)carbamoyl)amide], in experiment [1], the IC50 fell in the range of 100 to 1000 nM. In addition, the EC50 in experiment [2] is 1000 to 20000 nM.

On to `Cc1noc(C)c1-c1ccc(C[n+]2cc([N-]C(=O)Nc3cncc(C(F)(F)F)c3)on2)cc1` [Example 127, (3-(4-(3,5-dimethylisoxazol-4-yl)benzyl)-1,2,3-oxadiazol-3-ium-5-yl)((5-(trifluoromethyl)pyridin-3-yl)carbamoyl)amide], for which the IC50 in experiment [1] was in the range of 100 to 1000 nM. For the same compound, in experiment [2], the EC50 was 100 to 1000 nM.

In experiment [1], `O=C([N-]c1c[n+]([C@@H](Cc2ccccc2)CN2CCCC2)no1)Nc1cccc(C(F)(F)F)c1` [Example 40, (S)-(3-(1-phenyl-3-(pyrrolidin-1-yl)propan-2-yl)-1,2,3-oxadiazol-3-ium-5-yl)((3-(trifluoromethyl)phenyl)carbamoyl)amide] showed an IC50 of 1000 to 20000 nM. For the same compound, the EC50 in experiment [2] lay in the range of 1000 to 20000 nM.

The compound `Cc1noc(C)c1-c1ccc(C[n+]2cc([N-]C(=O)Nc3cccc(C(F)(F)F)n3)on2)nc1` [Example 161, (3-((5-(3,5-dimethylisoxazol-4-yl)pyridin-2-yl)methyl)-1,2,3-oxadiazol-3-ium-5-yl)((6-(trifluoromethyl)pyridin-2-yl)carbamoyl)amide] gave an IC50 in experiment [1] of 1000 to 20000 nM. Further, in experiment [2], the EC50 was in the range of 1000 to 20000 nM.

In the case of `N#Cc1ncncc1-c1ccc(C[n+]2cc([N-]C(=O)Nc3cncc(C(F)(F)F)c3)on2)nc1` [Example 144, (3-((5-(4-cyanopyrimidin-5-yl)pyridin-2-yl)methyl)-1,2,3-oxadiazol-3-ium-5-yl)((5-(trifluoromethyl)pyridin-3-yl)carbamoyl)amide], the IC50 in experiment [1] (setting [3]) is less than 100 nM. Further, the EC50 in experiment [2] was in the range of 1000 to 20000 nM.

Consider `Cn1cc(-c2cccc(C[n+]3cc([N-]C(=O)Nc4cccc(C(F)(F)F)c4)on3)c2)cn1` [Example 52, (3-(3-(1-methyl-1H-pyrazol-4-yl)benzyl)-1,2,3-oxadiazol-3-ium-5-yl)((3-(trifluoromethyl)phenyl)carbamoyl)amide], for which the IC50 in experiment [1] was 100 to 1000 nM. Moreover, in experiment [2], the EC50 fell in the range of 100 to 1000 nM.

Turning to `Cc1cnn(C)c1-c1ccc(C[n+]2cc([N-]C(=O)Nc3ccnc(C(F)(F)F)c3)on2)nc1` [Example 175, (3-((5-(1,4-dimethyl-1H-pyrazol-5-yl)pyridin-2-yl)methyl)-1,2,3-oxadiazol-3-ium-5-yl)((2-(trifluoromethyl)pyridin-4-yl)carbamoyl)amide], in experiment [1] (setting [3]), the IC50 is less than 100 nM. Besides, the EC50 in experiment [2] is less than 100 nM.

Compound `COc1cc(-c2ccc(C[n+]3cc([N-]C(=O)Nc4cccc(C(F)(F)F)c4)on3)cc2)ccn1` [Example 63, (3-(4-(2-methoxypyridin-4-yl)benzyl)-1,2,3-oxadiazol-3-ium-5-yl)((3-(trifluoromethyl)phenyl)carbamoyl)amide] came in with an IC50 in experiment [1] of 100 to 1000 nM. Besides, the EC50 in experiment [2] fell in the range of 100 to 1000 nM.
